From ChEMBL document CHEMBL1201862, “PubChem BioAssay data set” (2004)
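A five-concentration, 48-hour dose response in 96-well plates underlies each endpoint, interpolated linearly between surrounding concentrations. GI50 is the concentration that inhibits growth by half.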 Activity calls are given as the source filed them. No stated cut-off is given here; in the data, active = GI50 up to about 1.1 µM and inactive = higher.

How the values were obtained:
Assay in all cases: growth of human tumour cells (NCI), 48 h
OVCAR-4 = test system: OVCAR-4
SF-268 = test system: SF-268
SK-OV-3 = test system: SK-OV-3
NCI/ADR-RES = test system: NCI/ADR-RES
NCI-H23 = test system: NCI-H23
UACC-257 = test system: UACC-257
ACHN = test system: ACHN
KM12 = test system: KM12
BT-549 = test system: BT-549
HCC 2998 = test system: HCC 2998
HCT-15 = test system: HCT-15
LOX IMVI = test system: LOX IMVI
MCF7 = test system: MCF7
HL-60 = test system: HL-60
NCI-H460 = test system: NCI-H460
K562 = test system: K562
U-251 = test system: U-251
OVCAR-8 = test system: OVCAR-8
RXF 393 = test system: RXF 393
HOP-62 = test system: HOP-62
UACC-62 = test system: UACC-62
A549 = test system: A549
MOLT-4 = test system: MOLT-4
A498 = test system: A498
Hs-578T = test system: Hs-578T
SF-295 = test system: SF-295
SNB-19 = test system: SNB-19
NCI-H226 = test system: NCI-H226
CAKI-1 = test system: CAKI-1
EKVX = test system: EKVX
M14 = test system: M14
SK-MEL-28 = test system: SK-MEL-28
OVCAR-3 = test system: OVCAR-3
IGROV-1 = test system: IGROV-1
HT-29 = test system: HT-29
Malme-3M = test system: Malme-3M
MDA-MB-435 = test system: MDA-MB-435
OVCAR-5 = test system: OVCAR-5
TK-10 = test system: TK-10
MDA-N = test system: MDA-N
SNB-75 = test system: SNB-75
RPMI-8226 = test system: RPMI-8226
CCRF-CEM = test system: CCRF-CEM
HCT-116 = test system: HCT-116
NCI-H522 = test system: NCI-H522
SK-MEL-2 = test system: SK-MEL-2
SF-539 = test system: SF-539
786-0 = test system: 786-0
MDA-MB-231 = test system: MDA-MB-231
SN12C = test system: SN12C
PC-3 = test system: PC-3
COLO 205 = test system: COLO 205
SW-620 = test system: SW-620
SR = test system: SR
UO-31 = test system: UO-31
HOP-92 = test system: HOP-92
T47D = test system: T47D
DU-145 = test system: DU-145
SK-MEL-5 = test system: SK-MEL-5

Question: For `COc1cc(/C=C/C(=N\NC(N)=S)c2sc(NNC(C)=O)nc2C)ccc1O`, which GI50 (OVCAR-4) is on record?
Answer: > 100 µM (inactive)

Question: What about the GI50 (SF-268) of the same compound?
Answer: > 100 µM (inactive)

Question: And the GI50 (SK-OV-3)?
Answer: > 100 µM (inactive)

Question: What about the GI50 (NCI/ADR-RES) of the same compound?
Answer: > 100 µM (inactive)

Question: And the GI50 (NCI-H23)?
Answer: > 100 µM (inactive)

Question: And the GI50 (UACC-257)?
Answer: > 100 µM (inactive)

Question: What about the GI50 (ACHN) of the same compound?
Answer: > 100 µM (inactive)

Question: And the GI50 (KM12)?
Answer: > 100 µM (inactive)

Question: What about the GI50 (BT-549) of the same compound?
Answer: > 100 µM (inactive)

Question: What about the GI50 (HCC 2998) of the same compound?
Answer: > 100 µM (inactive)

Question: What about the GI50 (HCT-15) of the same compound?
Answer: > 100 µM

Question: And the GI50 (LOX IMVI)?
Answer: > 100 µM (inactive)

Question: What about the GI50 (MCF7) of the same compound?
Answer: > 100 µM (inactive)

Question: And the GI50 (HL-60)?
Answer: 29.6 µM (inactive)

Question: And the GI50 (NCI-H460)?
Answer: > 100 µM (inactive)

Question: What about the GI50 (K562) of the same compound?
Answer: > 100 µM (inactive)

Question: And the GI50 (U-251)?
Answer: > 100 µM (inactive)

Question: What about the GI50 (OVCAR-8) of the same compound?
Answer: > 100 µM (inactive)

Question: What about the GI50 (RXF 393) of the same compound?
Answer: > 100 µM (inactive)

Question: What about the GI50 (HOP-62) of the same compound?
Answer: > 100 µM (inactive)

Question: What about the GI50 (UACC-62) of the same compound?
Answer: > 100 µM (inactive)

Question: What about the GI50 (A549) of the same compound?
Answer: > 100 µM (inactive)

Question: What about the GI50 (MOLT-4) of the same compound?
Answer: > 100 µM (inactive)

Question: And the GI50 (A498)?
Answer: > 100 µM (inactive)

Question: What about the GI50 (Hs-578T) of the same compound?
Answer: > 100 µM (inactive)

Question: And the GI50 (SF-295)?
Answer: > 100 µM (inactive)

Question: And the GI50 (SNB-19)?
Answer: > 100 µM (inactive)

Question: And the GI50 (NCI-H226)?
Answer: > 100 µM (inactive)

Question: And the GI50 (CAKI-1)?
Answer: > 100 µM (inactive)

Question: And the GI50 (EKVX)?
Answer: > 100 µM (inactive)

Question: And the GI50 (M14)?
Answer: > 100 µM (inactive)

Question: And the GI50 (SK-MEL-28)?
Answer: > 100 µM (inactive)

Question: And the GI50 (OVCAR-3)?
Answer: > 100 µM (inactive)

Question: And the GI50 (IGROV-1)?
Answer: > 100 µM (inactive)

Question: What about the GI50 (HT-29) of the same compound?
Answer: > 100 µM (inactive)

Question: What about the GI50 (Malme-3M) of the same compound?
Answer: > 100 µM (inactive)

Question: What about the GI50 (MDA-MB-435) of the same compound?
Answer: > 100 µM (inactive)

Question: And the GI50 (OVCAR-5)?
Answer: > 100 µM (inactive)

Question: What about the GI50 (TK-10) of the same compound?
Answer: > 100 µM (inactive)

Question: What about the GI50 (MDA-N) of the same compound?
Answer: > 100 µM (inactive)

Question: And the GI50 (SNB-75)?
Answer: > 100 µM (inactive)

Question: What about the GI50 (RPMI-8226) of the same compound?
Answer: > 100 µM (inactive)

Question: What about the GI50 (CCRF-CEM) of the same compound?
Answer: > 100 µM (inactive)

Question: What about the GI50 (HCT-116) of the same compound?
Answer: > 100 µM (inactive)

Question: What about the GI50 (NCI-H522) of the same compound?
Answer: > 100 µM (inactive)

Question: What about the GI50 (SK-MEL-2) of the same compound?
Answer: > 100 µM (inactive)

Question: What about the GI50 (SF-539) of the same compound?
Answer: > 100 µM (inactive)

Question: And the GI50 (786-0)?
Answer: > 100 µM (inactive)

Question: And the GI50 (MDA-MB-231)?
Answer: > 100 µM (inactive)

Question: What about the GI50 (SN12C) of the same compound?
Answer: > 100 µM (inactive)

Question: What about the GI50 (PC-3) of the same compound?
Answer: > 100 µM (inactive)

Question: And the GI50 (COLO 205)?
Answer: > 100 µM (inactive)

Question: And the GI50 (SW-620)?
Answer: > 100 µM (inactive)

Question: And the GI50 (SR)?
Answer: > 100 µM (inactive)

Question: And the GI50 (UO-31)?
Answer: > 100 µM (inactive)

Question: And the GI50 (HOP-92)?
Answer: > 100 µM (inactive)

Question: What about the GI50 (T47D) of the same compound?
Answer: > 100 µM (inactive)

Question: And the GI50 (DU-145)?
Answer: > 100 µM (inactive)

Question: What about the GI50 (SK-MEL-5) of the same compound?
Answer: > 100 µM (inactive)

Question: What does the source list for `COc1ccc(N2C(=O)C3c4[nH]c5ccc(OC)cc5c4C4CCC(c5ccccc5)CC4C3C2=O)cc1` (stereo not drawn)?
Answer: GI50 (OVCAR-4): 4.21 µM (inactive); GI50 (SF-268): 8.63 µM (inactive); GI50 (SK-OV-3): 12.2 µM (inactive); GI50 (NCI/ADR-RES): 12.6 µM (inactive); GI50 (NCI-H23): 17.5 µM (inactive); GI50 (UACC-257): 17.3 µM (inactive); GI50 (ACHN): 9.48 µM (inactive); GI50 (KM12): 14.2 µM (inactive); GI50 (BT-549): 19.6 µM (inactive); GI50 (HCC 2998): 8.69 µM (inactive); GI50 (HCT-15): 31.3 µM; GI50 (LOX IMVI): 17.3 µM (inactive); GI50 (MCF7): 19.6 µM (inactive); GI50 (HL-60): 11.5 µM (inactive); GI50 (NCI-H460): 4.93 µM (inactive); GI50 (K562): 7.67 µM (inactive); GI50 (U-251): 8.99 µM (inactive); GI50 (OVCAR-8): 7.48 µM (inactive); GI50 (RXF 393): 10.9 µM (inactive); GI50 (HOP-62): 5.62 µM (inactive); GI50 (UACC-62): 15.1 µM (inactive); GI50 (A549): 12.8 µM (inactive); GI50 (MOLT-4): 4.32 µM (inactive); GI50 (A498): 14.2 µM (inactive); GI50 (Hs-578T): 1.6 µM (inactive); GI50 (SF-295): 7.73 µM (inactive); GI50 (SNB-19): 11.9 µM (inactive); GI50 (NCI-H226): 28.7 µM (inactive); GI50 (CAKI-1): 14.6 µM (inactive); GI50 (EKVX): 9.08 µM (inactive); GI50 (M14): 14.8 µM (inactive); GI50 (SK-MEL-28): 14.1 µM (inactive); GI50 (OVCAR-3): 16.7 µM (inactive); GI50 (IGROV-1): 16.1 µM (inactive); GI50 (HT-29): 4.04 µM (inactive); GI50 (Malme-3M): 11.4 µM (inactive); GI50 (MDA-MB-435): 16.4 µM (inactive); GI50 (OVCAR-5): 20.6 µM (inactive); GI50 (TK-10): 21.8 µM (inactive); GI50 (MDA-N): 18.4 µM (inactive); GI50 (SNB-75): 3.15 µM (inactive); GI50 (RPMI-8226): 6.25 µM (inactive); GI50 (CCRF-CEM): 2.27 µM (inactive); GI50 (HCT-116): 1.11 µM (active); GI50 (NCI-H522): 7.89 µM (inactive); GI50 (SK-MEL-2): 20.3 µM (inactive); GI50 (SF-539): 2.09 µM (inactive); GI50 (786-0): 2.12 µM (inactive); GI50 (MDA-MB-231): 7.05 µM (inactive); GI50 (SN12C): 6.15 µM (inactive); GI50 (PC-3): 19.2 µM (inactive); GI50 (COLO 205): 6.19 µM (inactive); GI50 (SW-620): 3.82 µM (inactive); GI50 (SR): 0.451 µM (active); GI50 (UO-31): 29.6 µM (inactive); GI50 (HOP-92): 16.7 µM (inactive); GI50 (T47D): 20.1 µM (inactive); GI50 (DU-145): 29.9 µM (inactive); GI50 (SK-MEL-5): 22.4 µM (inactive)
